Assay results taken from patent US20130213885A1, “FORWARD OSMOSIS SYSTEM AND PROCESS” (KING ABDULLAH UNIVERSITY OF SCIENCE AND TECHNOLOGY, priority 2012, published 2013).

Assay: Laboratory-scale forward osmosis performance test (water flux, salt flux)
Conditions: AL-DS
Description: Prior to use, CTA1 and CTA2 membranes were soaked in water for 30 minutes, and other membranes were soaked in isopropanol for 30 minutes, followed by a soaking in deionized (DI) water for 10 hours.
The specially designed cross-flow membrane cell (301) has a channel (302, 303) on each side of the membrane (304), which allows the feed solution (305) and draw solution (306) to flow through separately. Each channel has dimensions of 2.8 mm, 50 mm, and 100 mm for channel height, length, and width, respectively. Co-current flow was used with a flow rate in each channel that was controlled by a peristaltic pump (307, 308) and a flow meter (309, 310). The cross-flow rates for the feed and draw solution were both maintained at […]. A heat exchanger (311) was used to maintain the feed solution (305) and draw solution (306) at 23° C. A stirrer (318) on the feed side was also used. A weighing scale (312) connected to a computer (313) was used to monitor the weight of water permeating through the membrane from the feed to the draw side, from which the water flux was calculated. A conductivity meter (314) in the feed side was used to determine the salt concentration and thus the salt flux. A draw side conductivity meter (315) also exists to take measurements on the draw side. The laboratory scale unit (300) also comprises a feed-side thermistor (316) and a draw-side thermistor (317).

Compound: [Cl-].[Na+] [NaCl, sodium chloride]
- water flux relative to sodium lignin sulfonate as draw solute (CTA1 and CTA2 membranes, feed deionized water, different osmotic pressures): doubles
- salt flux relative to sodium lignin sulfonate as draw solute (CTA1 membrane, feed deionized water): about four times
- salt flux relative to sodium lignin sulfonate as draw solute (CTA2 membrane, feed deionized water): about the same range
- water flux, relatively stable stage (RO1 membrane, draw solute at 84 bar, feed DI, after first 10 minutes): around 4 LMH
